Laboratory results from ChEMBL document CHEMBL2157948, “Design, synthesis, and structure-activity-relationship of phenyl imidazoles as potent Smoothened antagonists” (Bioorg Med Chem Lett, 2012).
pIC50: −log10 of the molar value. In brackets after ≈: the same amount, converted by molar mass.

Tests used:
Mus musculus [1] = test: Clearance in po dosed mouse; type: ADME, organism-based; details: in vivo
Mus musculus [2] = test: Dose normalised AUC in po dosed mouse; type: ADME, organism-based; details: in vivo
Protein smoothened [3] = molecular target: T1, Protein smoothened (Mus musculus, UniProt P56726); test: Antagonist activity at Smo in mouse TM3 cells expressing Hh12 assessed as inhibition of 1 nM Ag1.5-induced Gli expression incubated for 30 mins prior to Ag1.5-induction measured after 48 hrs by luciferase reporter gene assay; type: functional, cell-based
T1 sequence (P56726 whole entry): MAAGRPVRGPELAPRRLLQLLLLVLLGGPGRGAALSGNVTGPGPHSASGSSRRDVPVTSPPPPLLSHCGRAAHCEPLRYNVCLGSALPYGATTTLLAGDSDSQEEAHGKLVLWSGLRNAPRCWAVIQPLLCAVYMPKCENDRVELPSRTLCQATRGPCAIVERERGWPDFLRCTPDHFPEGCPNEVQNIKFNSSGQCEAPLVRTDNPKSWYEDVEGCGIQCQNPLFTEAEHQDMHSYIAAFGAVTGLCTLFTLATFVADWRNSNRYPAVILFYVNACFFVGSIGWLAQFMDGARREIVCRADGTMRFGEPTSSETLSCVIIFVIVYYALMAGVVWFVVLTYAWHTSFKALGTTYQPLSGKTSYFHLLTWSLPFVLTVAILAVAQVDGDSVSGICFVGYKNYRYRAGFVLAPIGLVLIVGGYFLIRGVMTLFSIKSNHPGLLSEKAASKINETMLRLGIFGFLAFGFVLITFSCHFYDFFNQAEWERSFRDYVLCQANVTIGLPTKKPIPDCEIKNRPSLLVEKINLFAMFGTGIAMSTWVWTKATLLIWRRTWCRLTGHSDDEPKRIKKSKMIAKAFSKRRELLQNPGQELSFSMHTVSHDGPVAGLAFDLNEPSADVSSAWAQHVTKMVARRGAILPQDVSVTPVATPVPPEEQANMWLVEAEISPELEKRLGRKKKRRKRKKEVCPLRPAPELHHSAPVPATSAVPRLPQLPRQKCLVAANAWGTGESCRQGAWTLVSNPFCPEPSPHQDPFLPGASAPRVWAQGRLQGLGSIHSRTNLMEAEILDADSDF

Protein smoothened [4] = molecular target: T1, Protein smoothened; test: Antagonist activity at Smo in mouse TM3 cells expressing Hh12 assessed as inhibition of 25 nM Ag1.5-induced Gli expression incubated for 30 mins prior to Ag1.5-induction measured after 48 hrs by luciferase reporter gene assay; type: functional, cell-based
[5] = Aqueous solubility of the compound at pH 7; type: physicochemical
[6] = Plasma protein binding in human; type: ADME, cell-free; details: read-out: PPB (converted)
Protein smoothened [7] = molecular target: Protein smoothened (Homo sapiens, UniProt Q99835); test: Antagonist activity at human Smo expressed in CHO cells assessed as inhibition of BODIPY-cyclopamine binding after 4 hrs by fluorescence assay; type: cell-based
Sequence of Protein smoothened (Homo sapiens, UniProt Q99835) (Q99835 whole entry): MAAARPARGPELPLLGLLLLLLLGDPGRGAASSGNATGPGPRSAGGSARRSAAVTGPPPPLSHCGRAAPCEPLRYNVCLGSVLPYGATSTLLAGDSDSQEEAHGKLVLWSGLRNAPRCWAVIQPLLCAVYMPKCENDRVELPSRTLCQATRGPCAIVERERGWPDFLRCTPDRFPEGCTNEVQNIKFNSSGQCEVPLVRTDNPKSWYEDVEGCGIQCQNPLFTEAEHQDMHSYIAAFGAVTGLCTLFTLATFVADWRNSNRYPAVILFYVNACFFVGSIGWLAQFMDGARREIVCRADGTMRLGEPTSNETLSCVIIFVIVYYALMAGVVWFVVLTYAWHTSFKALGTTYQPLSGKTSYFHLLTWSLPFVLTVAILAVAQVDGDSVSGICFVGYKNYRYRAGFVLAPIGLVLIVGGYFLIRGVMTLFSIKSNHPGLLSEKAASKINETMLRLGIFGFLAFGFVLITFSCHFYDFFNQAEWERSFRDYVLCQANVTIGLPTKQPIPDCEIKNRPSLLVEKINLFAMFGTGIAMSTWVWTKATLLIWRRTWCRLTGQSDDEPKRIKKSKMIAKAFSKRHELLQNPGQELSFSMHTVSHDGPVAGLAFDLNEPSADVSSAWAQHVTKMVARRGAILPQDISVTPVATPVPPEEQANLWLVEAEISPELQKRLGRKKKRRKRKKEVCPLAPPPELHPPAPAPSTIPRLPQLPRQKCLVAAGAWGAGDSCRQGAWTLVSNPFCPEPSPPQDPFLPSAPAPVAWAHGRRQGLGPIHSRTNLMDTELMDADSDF

[8] = Mean residence time in mouse; type: ADME, organism-based; details: in vivo
[9] = Volume of distribution at steady state in mouse; type: ADME, organism-based; details: in vivo, read-out: Vdss
[10] = Mean residence time in rat at 3 to 30 mg/kg; type: ADME, organism-based; set-up: dose 3-30 mg/kg; details: in vivo
[11] = Oral bioavailability in rat at 3 to 30 mg/kg; type: ADME, organism-based; details: in vivo
[12] = Clearance in mouse; type: ADME, organism-based; details: in vivo
[13] = Permeability of the compound by PAMPA assay; type: ADME
[14] = Clearance in rat at 3 to 30 mg/kg; type: ADME, organism-based; set-up: dose 3-30 mg/kg; details: in vivo
[15] = Aqueous solubility of the compound at pH 1; type: physicochemical
[16] = Oral bioavailability in mouse; type: ADME, organism-based; details: in vivo
[17] = Ratio of drug uptake in brain to plasma in mouse; type: ADME, organism-based; details: read-out: BPR
Protein smoothened [18] = molecular target: T1, Protein smoothened; test: Antagonist activity at mouse Smo expressed in CHO cells assessed as inhibition of BODIPY-cyclopamine binding after 4 hrs by fluorescence assay; type: cell-based
[19] = Volume of distribution at steady state in rat at 3 to 30 mg/kg; type: ADME, organism-based; set-up: dose 3-30 mg/kg; details: in vivo, read-out: Vdss
[20] = Plasma protein binding in rat; type: ADME, cell-free; details: read-out: PPB (converted)

| Compound | clearance (Mus musculus [1]) [mL/min/kg] | AUC/dose (Mus musculus [2]) [nM·h] | pIC50 (Protein smoothened [3]) | pIC50 (Protein smoothened [4]) | further results |
| --- | --- | --- | --- | --- | --- |
| C[C@@H]1CN(c2ccc3c(Nc4ccc(Cl)c(-c5ncc(-c6ccccc6)[nH]5)c4)nccc3c2)C[C@H](C)O1 | 24.7 | 499 |  |  |  |
| C[C@@H]1CN(c2ccc3c(Nc4ccc(Cl)c(-c5ncc(-c6ccccc6)[nH]5)c4)nccc3n2)CCO1 | 32 | 881 | 9.22 | 7.96 | solubility [5]: < 1 µg/mL; fraction unbound [6]: 0.039; pIC50 (Protein smoothened [7]): 8.40; MRT [8]: 0.56 h; Vd [9]: 1.07 L/kg; MRT [10]: 3.33 h; bioavailability [11]: 53%; clearance [12]: 32 mL/min/kg; permeability [13]: permeable; clearance [14]: 5 mL/min/kg; solubility [15]: 93 µg/mL (≈ 187 µM); bioavailability [16]: 82%; Kp [17]: 0.4; pIC50 (Protein smoothened [18]): 8.80; Vd [19]: 1 L/kg; fraction unbound [20]: 0.015 |
| C[C@@H]1CN(c2cnc3c(Nc4ccc(Cl)c(-c5nc(-c6ccccc6)c[nH]5)c4)cccc3n2)C[C@H](C)O1 |  |  | 8.52 | 7.46 |  |
| O=S1(=O)CCN(c2ccc3c(Nc4ccc(Cl)c(-c5nc(-c6ccccc6)c[nH]5)c4)nccc3c2)CC1 |  |  | 8.70 | 7.51 |  |
| Clc1ccc(Nc2nccc3ccccc23)cc1-c1ncc(-c2ccccc2)[nH]1 |  |  | 7.72 | 6.80 |  |

The next lines start with results.

| clearance (Mus musculus [1]) [mL/min/kg] | AUC/dose (Mus musculus [2]) [nM·h] | pIC50 (Protein smoothened [3]) | pIC50 (Protein smoothened [4]) | Compound | further results |
| --- | --- | --- | --- | --- | --- |
| 33.1 | 268 | 9.70 | 8.22 | C[C@@H]1CN(c2ccc3c(Nc4ccc(Cl)c(-c5nc(-c6ccccc6)c[nH]5)c4)nccc3n2)C[C@H](C)O1 |  |
|  | 0 | 9.40 | 8.10 | C[C@@H]1CN(c2ccc3c(Nc4ccc(Cl)c(-c5nc(-c6ccccc6)c[nH]5)c4)ccnc3c2)C[C@H](C)O1 |  |
|  |  | 9.70 |  | Cc1ccc(NC(=O)c2ccc(N3CCOCC3)cc2)cc1-c1nc(-c2ccccc2)c[nH]1 |  |
|  | 492 | 9.52 | 8.30 | C[C@@H]1CN(c2ccc3c(Nc4ccc(Cl)c(-c5ncc(-c6ccccc6)[nH]5)c4)cccc3n2)C[C@H](C)O1 |  |
|  | 101 | 10.00 | 8.59 | Clc1ccc(Nc2nccc3cc(N4CCOCC4)ccc23)cc1-c1ncc(-c2ccccc2)[nH]1 |  |
| 30.9 | 533 | 10.00 | 8.80 | C[C@@H]1CN(c2ccc3c(Nc4ccc(Cl)c(-c5ncc(-c6ccccc6)[nH]5)c4)nccc3c2)CCO1 |  |
